# Assay results as given in PubChem BioAssay AID1259407 (Chemical Carcinogenesis Research Information System (CCRIS), 2018).
# The source made the active and inactive calls. No rule for the calls is given here.
# Tested on: CCRIS mutagenicity, Ames/micronucleus/aberration tests
# Test: CCRIS mutagenicity studies
# [1] = Test System: AMES SALMONELLA TYPHIMURIUM, Strain/Indicator: TA98, Metabolic Activation: NONE, Method: STANDARD PLATE
# [2] = Test System: AMES SALMONELLA TYPHIMURIUM, Strain/Indicator: TA100, Metabolic Activation: NONE, Method: STANDARD PLATE
smiles,measurement,setting,value
COc1ccc(/C=C/c2ccc([N+](=O)[O-])cc2)cc1,mutagenic call,"Test System: AMES SALMONELLA TYPHIMURIUM, Strain/Indicator: TA98(NR), Metabolic Activation: NONE, Method: STANDARD PLATE",inactive; negative
same,mutagenic call,"Test System: AMES SALMONELLA TYPHIMURIUM, Strain/Indicator: TA98 (NR), Metabolic Activation: S-9, Method: STANDARD PLATE",active; positive
same,mutagenic call,[1],active; positive
same,mutagenic call,"Test System: AMES SALMONELLA TYPHIMURIUM, Strain/Indicator: TA98, Metabolic Activation: S-9, Method: STANDARD PLATE",active; positive
same,mutagenic call,"Test System: AMES SALMONELLA TYPHIMURIUM, Strain/Indicator: TA100 (NR), Metabolic Activation: NONE, Method: STANDARD PLATE",inactive; negative
same,mutagenic call,"Test System: AMES SALMONELLA TYPHIMURIUM, Strain/Indicator: TA100 (NR), Metabolic Activation: S-9, Method: STANDARD PLATE",inactive; negative
same,mutagenic call,[2],active; positive
same,mutagenic call,"Test System: AMES SALMONELLA TYPHIMURIUM, Strain/Indicator: TA100, Metabolic Activation: S-9, Method: STANDARD PLATE",active; positive
CCCCCCCCCCCCCCCCCCO,mutagenic call,[1],inactive; negative
same,mutagenic call,"Test System: AMES SALMONELLA TYPHIMURIUM, Strain/Indicator: TA98, Metabolic Activation: RAT, LIVER, S-9, AROCLOR 1254, Method: STANDARD PLATE",inactive; negative
same,mutagenic call,[2],inactive; negative
same,mutagenic call,"Test System: AMES SALMONELLA TYPHIMURIUM, Strain/Indicator: TA100, Metabolic Activation: RAT, LIVER, S-9, AROCLOR 1254, Method: STANDARD PLATE",inactive; negative
same,mutagenic call,"Test System: AMES SALMONELLA TYPHIMURIUM, Strain/Indicator: TA1535, Metabolic Activation: NONE, Method: STANDARD PLATE",inactive; negative
same,mutagenic call,"Test System: AMES SALMONELLA TYPHIMURIUM, Strain/Indicator: TA1535, Metabolic Activation: RAT, LIVER, S-9, AROCLOR 1254, Method: STANDARD PLATE",inactive; negative
same,mutagenic call,"Test System: AMES SALMONELLA TYPHIMURIUM, Strain/Indicator: TA1537, Metabolic Activation: NONE, Method: STANDARD PLATE",inactive; negative
same,mutagenic call,"Test System: AMES SALMONELLA TYPHIMURIUM, Strain/Indicator: TA1537, Metabolic Activation: RAT, LIVER, S-9, AROCLOR 1254, Method: STANDARD PLATE",inactive; negative
same,mutagenic call,"Test System: AMES SALMONELLA TYPHIMURIUM, Strain/Indicator: TA1538, Metabolic Activation: NONE, Method: STANDARD PLATE",inactive; negative
same,mutagenic call,"Test System: AMES SALMONELLA TYPHIMURIUM, Strain/Indicator: TA1538, Metabolic Activation: RAT, LIVER, S-9, AROCLOR 1254, Method: STANDARD PLATE",inactive; negative
same,mutagenic call,"Test System: E. COLI, Strain/Indicator: WP2, Metabolic Activation: NONE, Method: STANDARD PLATE",inactive; negative
same,mutagenic call,"Test System: E. COLI, Strain/Indicator: WP2, Metabolic Activation: RAT, LIVER, S-9, AROCLOR 1254, Method: STANDARD PLATE",inactive; negative
C1CCC2=NCCCN2CC1,mutagenic call,"Test System: Mouse lymphoma, Strain/Indicator: L5178Y (tk+/tk-), Metabolic Activation: None, Method: Suspension/plate",inactive; negative
same,mutagenic call,"Test System: Mouse lymphoma, Strain/Indicator: L5178Y (tk+/tk-), Metabolic Activation: Rat, Liver, S-9, Aroclor 1254, Method: Suspension/plate",inactive; negative
O=[N+]([O-])c1cccc2nc3ccccc3nc12,mutagenic call,"Test System: AMES SALMONELLA TYPHIMURIUM, Strain/Indicator: TA98(NR), Metabolic Activation: NONE, Method: PREINCUBATION",active; positive
same,mutagenic call,"Test System: AMES SALMONELLA TYPHIMURIUM, Strain/Indicator: TA98, Metabolic Activation: NONE, Method: PREINCUBATION",inactive; negative
